In patent US20240409585A1, “MACROCYCLIC IMMUNOMODULATORS” (priority 2021, published 2024) one finds IC50 data, which are given here for twelve compounds.

Read-outs that look alike come from different tables or passages of the source. Numbered stars: 1 amine (or outer) side, 2 acyl side, 3 side chain; on linkers, the order of the positions; unused ones are H or OH. Bridge positions count the residues as written; N and C are the ends. Square brackets hold non-standard residues; d marks the D form. Peptide text beside a SMILES is read from it. * marks the point of attachment. Bip(4'-COOH) = N[C@@H](Cc1ccc(-c2ccc(C(=O)O)cc2)cc1)C(=O)O; Bip(4'-NHAc) = CC(=O)Nc1ccc(-c2ccc(C[C@H](N)C(=O)O)cc2)cc1; X24 = COc1ccccc1-c1cn(C[C@H](N[*:1])C(=O)[*:2])nn1; Phe(3-CF3) = N[C@@H](Cc1cccc(C(F)(F)F)c1)C(=O)O; Ala(morpholin-4-yl) = N[C@@H](CN1CCOCC1)C(=O)O; Phe(4-CONH2) = NC(=O)c1ccc(C[C@H](N)C(=O)O)cc1; Phe(4-COOH) = N[C@@H](Cc1ccc(C(=O)O)cc1)C(=O)O; Bip = N[C@@H](Cc1ccc(-c2ccccc2)cc1)C(=O)O; Abu(3R-NH2) = C[C@@H](N)[C@H](N)C(=O)O; Phe(3-Me) = Cc1cccc(C[C@H](N)C(=O)O)c1; Phe(4-Me) = Cc1ccc(C[C@H](N)C(=O)O)cc1; Abu(3S-NH2) = C[C@H](N)[C@H](N)C(=O)O; Propanoyl(3,3,3-F3) = O=C(CC(F)(F)F)*; X11 = CC(N)[C@H](N[*:1])C(=O)[*:2]; hPhe = N[C@@H](CCc1ccccc1)C(=O)O; Cha = N[C@@H](CC1CCCCC1)C(=O)O; Agb = N=C(N)NCC[C@H](N)C(=O)O; Propanoyl(3-OH) = O=C(CCO)*; Carboxymethyl = O=C(O)C*; NMeA = CN[C@@H](C)C(=O)O; Orn = NCCC[C@H](N)C(=O)O; Dab = NCC[C@H](N)C(=O)O; Dap = NC[C@H](N)C(=O)O

The target in the experiment is T1, Alexa fluor-647 labeled human PD-L1-Ig binding to Jurkat cell line over-expressing human PD-1 (Homo sapiens, UniProt Q15116).
T1 construct: expressed in transfected cells; host or cells: Jurkat
T1 sequence (Q15116 25-288): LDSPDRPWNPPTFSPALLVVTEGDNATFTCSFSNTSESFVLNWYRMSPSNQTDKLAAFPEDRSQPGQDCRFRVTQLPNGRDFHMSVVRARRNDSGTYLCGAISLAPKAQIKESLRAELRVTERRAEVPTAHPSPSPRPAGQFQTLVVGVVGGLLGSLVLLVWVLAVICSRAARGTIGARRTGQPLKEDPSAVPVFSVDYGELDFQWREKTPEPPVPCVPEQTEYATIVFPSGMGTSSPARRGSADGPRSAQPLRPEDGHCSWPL
Put plainly: Jurkat-PD-1 Cell Binding High-Content Screening Assay (CBA): Method 3 (Alexa fluor-647 labeled PD-L1-Ig). Particulars: Jurkat-PD-1 cells, Alexa fluor-647 labeled PD-L1-Ig 177 nM. The gist of the method:
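Jurkat cells over-expressing human PD-1 in RPMI/10% FCS were preincubated 2 h at 37 °C with compound, then exposed 1 h to Alexa fluor-647 labeled human PD-L1-Ig (177 nM final). Cells fixed in 4% paraformaldehyde with Hoechst 33342 and binding quantified by high-content imaging.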

Where [1] appears, read: head μM, read-out: CBA Method 3 μM.

For the compound `CC(=O)Nc1ccc(-c2ccc(C[C@@H]3NC(=O)[C@H](Cc4cccc(C(F)(F)F)c4)NC(=O)[C@H](CC(=O)O)NC(=O)[C@H](Cc4ccc(C(=O)O)cc4)NC(=O)[C@H]([C@H](C)N)NC(=O)CSC[C@@H](C(=O)N[C@@H](CCN)C(N)=O)NC(=O)[C@H](CCC(=O)O)NC(=O)[C@H](C(C)C)NC(=O)[C@H](CC4CCCCC4)NC(=O)[C@H](CCN)NC(=O)[C@@H](CC(C)C)NC(=O)[C@H](C)N(C)C(=O)[C@H](Cc4ccc(C(N)=O)cc4)NC(=O)[C@H](Cc4ccc(-c5ccccc5)cc4)NC3=O)cc2)cc1` [Example 5118] ({CH2CO}-[Abu(3S-NH2)][Phe(4-COOH)]D[Phe(3-CF3)][Bip(4'-NHAc)][Bip][Phe(4-CONH2)][NMeA][dL][Dab][Cha]VEC[Dab]-NH2; thioether N-14), the IC50 (nM, read-out: CBA Method 3) was determined as 1.7 nM.
On to `Cc1ccc(C[C@@H]2NC(=O)CSC[C@@H](C(=O)N[C@@H](CCN)C(N)=O)NC(=O)[C@H](CCCN)NC(=O)[C@H](C(C)C)NC(=O)[C@H](CC3CCCCC3)NC(=O)[C@H](CCN)NC(=O)[C@@H](CC(C)C)NC(=O)[C@H](C)N(C)C(=O)[C@H](CCC(N)=O)NC(=O)[C@H](Cc3ccc(-c4ccccc4)cc3)NC(=O)[C@H](Cc3ccc(C(=O)O)cc3)NC(=O)[C@H](Cc3cccc(C)c3)NC(=O)[C@H](CC(=O)O)NC(=O)[C@H](Cc3ccc(OCC(=O)O)cc3)NC2=O)cc1` [Example 5289] ({CH2CO}-[Phe(4-Me)]Y(Carboxymethyl)D[Phe(3-Me)][Phe(4-COOH)][Bip]Q[NMeA][dL][Dab][Cha]V[Orn]C[Dab]-NH2; thioether N-14), for which the IC50 (nM, read-out: CBA Method 3) is 0.8 nM.
For the compound `CC(=O)Nc1ccc(-c2ccc(C[C@@H]3NC(=O)[C@H](Cc4cccc(C(F)(F)F)c4)NC(=O)[C@H](CC(=O)O)NC(=O)[C@H](Cc4ccc(C(=O)O)cc4)NC(=O)[C@H]([C@@H](C)N)NC(=O)CSC[C@@H](C(=O)N[C@@H](CCN)C(N)=O)NC(=O)[C@H](CCC(=O)O)NC(=O)[C@H](C(C)C)NC(=O)[C@H](CC4CCCCC4)NC(=O)[C@H](CCN)NC(=O)[C@@H](CC(C)C)NC(=O)[C@H](C)N(C)C(=O)[C@H](Cc4ccc(C(=O)O)cc4)NC(=O)[C@H](Cc4ccc(-c5ccccc5)cc4)NC3=O)cc2)cc1` [Example 5160] ({CH2CO}-[Abu(3R-NH2)][Phe(4-COOH)]D[Phe(3-CF3)][Bip(4'-NHAc)][Bip][Phe(4-COOH)][NMeA][dL][Dab][Cha]VEC[Dab]-NH2; thioether N-14), under setting [1], the IC50 was found to be 40 nM.
On the same count and under the same terms, next, `COc1ccccc1-c1cn(C[C@@H]2NC(=O)[C@H](Cc3ccc(C(=O)O)cc3)NC(=O)[C@H](Cc3cccc(C(F)(F)F)c3)NC(=O)[C@H](CC(=O)O)NC(=O)[C@H](Cc3ccc(C(=O)O)cc3)NC(=O)[C@H](CN3CCOCC3)NC(=O)CSC[C@@H](C(=O)N[C@@H](CCN)C(N)=O)NC(=O)[C@H](CCC(=O)O)NC(=O)[C@H](C(C)C)NC(=O)[C@H](CC3CCCCC3)NC(=O)[C@H](CCN)NC(=O)[C@@H](CC(C)C)NC(=O)[C@H](C)N(C)C(=O)[C@H](Cc3ccc(C(=O)O)cc3)NC2=O)nn1` [Example 5197] ({CH2CO}-[Ala(morpholin-4-yl)][Phe(4-COOH)]D[Phe(3-CF3)][Phe(4-COOH)][X24][Phe(4-COOH)][NMeA][dL][Dab][Cha]VEC[Dab]-NH2; thioether N-14): 450 nM.
In the case of `CC(C)C[C@H]1NC(=O)[C@H](C)N(C)C(=O)[C@H](Cc2ccc(C(=O)O)cc2)NC(=O)[C@H](Cc2ccc(-c3ccccc3)cc2)NC(=O)[C@H](CCc2ccccc2)NC(=O)[C@H](Cc2cccc(C(F)(F)F)c2)NC(=O)[C@H](CC(=O)O)NC(=O)[C@H](Cc2ccc(C(=O)O)cc2)NC(=O)[C@H](CN2CCOCC2)NC(=O)CSC[C@@H](C(=O)N[C@@H](CCN)C(N)=O)NC(=O)[C@H](CNC(=O)CC(F)(F)F)NC(=O)[C@H](C(C)C)NC(=O)[C@H](CC2CCCCC2)NC(=O)[C@H](CCN)NC1=O` [Example 5232] ({CH2CO}-[Ala(morpholin-4-yl)][Phe(4-COOH)]D[Phe(3-CF3)][hPhe][Bip][Phe(4-COOH)][NMeA][dL][Dab][Cha]V[Dap](Propanoyl(3,3,3-F3))C[Dab]-NH2; thioether N-14), the IC50 under setting [1] was 100 nM.
Take `CC(C)C[C@H]1NC(=O)[C@H](C)N(C)C(=O)[C@H](CCC(N)=O)NC(=O)[C@H](Cc2ccc(-c3ccccc3)cc2)NC(=O)[C@H](CCc2ccccc2)NC(=O)[C@H](Cc2cccc(C(F)(F)F)c2)NC(=O)[C@H](CC(=O)N[C@@H](CC(=O)O)C(=O)O)NC(=O)[C@H](Cc2ccc(OCC(=O)O)cc2)NC(=O)[C@H](CN2CCOCC2)NC(=O)CSC[C@@H](C(=O)N[C@@H](CCN)C(N)=O)NC(=O)[C@H](CCCN)NC(=O)[C@H](C(C)C)NC(=O)[C@H](CC2CCCCC2)NC(=O)[C@H](CCN)NC1=O` [Example 5280] ({CH2CO}-[Ala(morpholin-4-yl)]Y(Carboxymethyl)D(Asp)[Phe(3-CF3)][hPhe][Bip]Q[NMeA][dL][Dab][Cha]V[Orn]C[Dab]-NH2; thioether N-14): for the setting “nM, read-out: CBA Method 3”, the IC50 is 4.6 nM.
In the case of `Cc1cccc(C[C@@H]2NC(=O)[C@H](CC(=O)O)NC(=O)[C@H](Cc3ccc(OCC(=O)O)cc3)NC(=O)[C@H](CCNC(=N)N)NC(=O)CSC[C@@H](C(=O)N[C@@H](CCN)C(N)=O)NC(=O)[C@H](CCCN)NC(=O)[C@H](C(C)C)NC(=O)[C@H](CC3CCCCC3)NC(=O)[C@H](CCN)NC(=O)[C@@H](CC(C)C)NC(=O)[C@H](C)N(C)C(=O)[C@H](CCC(N)=O)NC(=O)[C@H](Cc3ccc(-c4ccccc4)cc3)NC(=O)[C@H](Cc3ccc(C(=O)O)cc3)NC2=O)c1` [Example 5182] ({CH2CO}-[Agb]Y(Carboxymethyl)D[Phe(3-Me)][Phe(4-COOH)][Bip]Q[NMeA][dL][Dab][Cha]V[Orn]C[Dab]-NH2; thioether N-14), the IC50 under setting [1] came out at 10 nM.
On to `CC(=O)Nc1ccc(-c2ccc(C[C@@H]3NC(=O)[C@H](Cc4cccc(C(F)(F)F)c4)NC(=O)[C@H](CC(=O)O)NC(=O)[C@H](Cc4ccc(C(=O)O)cc4)NC(=O)[C@H](CCN)NC(=O)CSC[C@@H](C(=O)N[C@@H](CCN)C(N)=O)NC(=O)[C@H](CC(N)=O)NC(=O)[C@H](C(C)C)NC(=O)[C@H](CC4CCCCC4)NC(=O)[C@H](CCN)NC(=O)[C@@H](CC(C)C)NC(=O)[C@H](C)N(C)C(=O)[C@H](Cc4ccc(C(N)=O)cc4)NC(=O)[C@H](Cc4ccc(-c5ccccc5)cc4)NC3=O)cc2)cc1` [Example 5098] ({CH2CO}-[Dab][Phe(4-COOH)]D[Phe(3-CF3)][Bip(4'-NHAc)][Bip][Phe(4-CONH2)][NMeA][dL][Dab][Cha]VNC[Dab]-NH2; thioether N-14), for which the IC50 under setting [1] was determined as 10 nM.
On to `CC(=O)Nc1ccc(-c2ccc(C[C@@H]3NC(=O)[C@H](Cc4cccc(C(F)(F)F)c4)NC(=O)[C@H](CC(=O)O)NC(=O)[C@H](Cc4ccc(C(=O)O)cc4)NC(=O)[C@H](C(C)N)NC(=O)CSC[C@@H](C(=O)N[C@@H](CCN)C(N)=O)NC(=O)[C@H](CNC(=O)CCO)NC(=O)[C@H](C(C)C)NC(=O)[C@H](CC4CCCCC4)NC(=O)[C@H](CCN)NC(=O)[C@@H](CC(C)C)NC(=O)[C@H](C)N(C)C(=O)[C@H](Cc4ccc(C(N)=O)cc4)NC(=O)[C@H](Cc4ccc(-c5ccccc5)cc4)NC3=O)cc2)cc1` (stereo partly drawn) [Example 5148] ({CH2CO}-[X11][Phe(4-COOH)]D[Phe(3-CF3)][Bip(4'-NHAc)][Bip][Phe(4-CONH2)][NMeA][dL][Dab][Cha]V[Dap](Propanoyl(3-OH))C[Dab]-NH2; thioether N-14), for which the IC50 (nM, read-out: CBA Method 3) came out at 0.9 nM.
Turning to `CC(C)C[C@H]1NC(=O)[C@H](C)N(C)C(=O)[C@H](Cc2ccc(C(=O)O)cc2)NC(=O)[C@H](Cc2ccc(-c3ccccc3)cc2)NC(=O)[C@H](Cc2ccc(C(=O)O)cc2)NC(=O)[C@H](Cc2cccc(C(F)(F)F)c2)NC(=O)[C@H](CC(=O)N[C@@H](CC(=O)O)C(=O)O)NC(=O)[C@H](Cc2ccc(C(=O)O)cc2)NC(=O)[C@H]([C@H](C)N)NC(=O)CSC[C@@H](C(=O)N[C@@H](CCN)C(N)=O)NC(=O)[C@H](CC(N)=O)NC(=O)[C@H](C(C)C)NC(=O)[C@H](CC2CCCCC2)NC(=O)[C@H](CCN)NC1=O` [Example 5102] ({CH2CO}-[Abu(3S-NH2)][Phe(4-COOH)]D(Asp)[Phe(3-CF3)][Phe(4-COOH)][Bip][Phe(4-COOH)][NMeA][dL][Dab][Cha]VNC[Dab]-NH2; thioether N-14), under setting [1], the IC50 was 510 nM.
On to `CC(C)C[C@H]1NC(=O)[C@H](C)N(C)C(=O)[C@H](Cc2ccc(C(=O)O)cc2)NC(=O)[C@H](Cc2ccc(-c3ccccc3)cc2)NC(=O)[C@H](Cn2cc(C3CC3)nn2)NC(=O)[C@H](Cc2cccc(C(F)(F)F)c2)NC(=O)[C@H](CC(=O)O)NC(=O)[C@H](Cc2ccc(C(=O)O)cc2)NC(=O)[C@H]([C@@H](C)N)NC(=O)CSC[C@@H](C(=O)N[C@@H](CCN)C(N)=O)NC(=O)[C@H](CCC(=O)O)NC(=O)[C@H](C(C)C)NC(=O)[C@H](CC2CCCCC2)NC(=O)[C@H](CCN)NC1=O` [Example 5251], for which the IC50 (nM, read-out: CBA Method 3) is 1.6 nM.
With `CC(C)C[C@H]1NC(=O)[C@H](C)N(C)C(=O)[C@H](Cc2ccc(C(=O)O)cc2)NC(=O)[C@H](Cc2ccc(-c3ccccc3)cc2)NC(=O)[C@H](Cc2ccc(-c3ccc(C(=O)O)cc3)cc2)NC(=O)[C@H](Cc2cccc(C(F)(F)F)c2)NC(=O)[C@H](CC(=O)O)NC(=O)[C@H](Cc2ccc(C(=O)O)cc2)NC(=O)[C@H](Cc2ccc(OCC(=O)O)cc2)NC(=O)CSC[C@@H](C(=O)N[C@@H](CCN)C(N)=O)NC(=O)[C@H](CCC(=O)O)NC(=O)[C@H](C(C)C)NC(=O)[C@H](CC2CCCCC2)NC(=O)[C@H](CCN)NC1=O` [Example 5164] ({CH2CO}-Y(Carboxymethyl)[Phe(4-COOH)]D[Phe(3-CF3)][Bip(4'-COOH)][Bip][Phe(4-COOH)][NMeA][dL][Dab][Cha]VEC[Dab]-NH2; thioether N-14), the IC50 under setting [1] came out at 150 nM.
